Tests used:
[1] = tested on: L2X variant (G72C-G76C) (RNA, riboswitch, internal amino modifier (N) for Cy5 between 25 and 26 of strand 2; strand 3 is a DNA tether) GCGGUGAAGAUAGAGGUGCGAACUUCAAGAGUAUGCCUUUGGAGAAACUACCAUUCUGUGAAAAAGGCUGAAAGGGGAGCGUCGCCGAAGCAAAUAAAACCCCAUCGGUAUUAUUUGCUGGCCGUGCAUUGAAUAAAUGUAAGGCUGUCAAGAAGCAUCGUUCAAGCGUUUUUUAUGCUUGGAAGAUAAGAA/CCGAUGCUUCUUGGAGGGCUAUCUUCACC; assay: smFRET histograms; conditions: ligand-bound FRET state not formed even at high Mg2+ or lysine
[2] = tested on: wild-type lysC aptamer (three-strand smFRET construct LMS/1-5V2/DNA-bi) (RNA, riboswitch, internal amino modifier (N) for Cy5 between 25 and 26 of strand 2; strand 3 is a DNA tether) GCGGUGAAGAUAGAGGUGCGAACUUCAAGAGUAUGCCUUUGGAGAAAGAUGGAUUCUGUGAAAAAGGCUGAAAGGGGAGCGUCGCCGAAGCAAAUAAAACCCCAUCGGUAUUAUUUGCUGGCCGUGCAUUGAAUAAAUGUAAGGCUGUCAAGAAGCAUCGUUCAAGCGUUUUUUAUGCUUGGAAGAUAAGAA/CCGAUGCUUCUUGGAGGGCUAUCUUCACC; assay: smFRET kinetics, KD,fold x KD,bind; conditions: 100 mM K+, 2 mM Mg2+; 50 mM Tris pH 7.8; apparent
[3] = tested on: L4X variant (A156/157C) (RNA, riboswitch, internal amino modifier (N) for Cy5 between 25 and 26 of strand 2; strand 3 is a DNA tether) GCGGUGAAGAUAGAGGUGCGAACUUCAAGAGUAUGCCUUUGGAGAAAGAUGGAUUCUGUGAAAAAGGCUGAAAGGGGAGCGUCGCCGAAGCAAAUAAAACCCCAUCGGUAUUAUUUGCUGGCCGUGCAUUGCCUAAAUGUAAGGCUGUCAAGAAGCAUCGUUCAAGCGUUUUUUAUGCUUGGAAGAUAAGAA/CCGAUGCUUCUUGGAGGGCUAUCUUCACC; assay: smFRET histograms; conditions: ligand-bound FRET state not formed even at high Mg2+ or lysine
[4] = tested on: wild-type lysC aptamer (three-strand smFRET construct LMS/1-5V2/DNA-bi) (RNA, riboswitch, internal amino modifier (N) for Cy5 between 25 and 26 of strand 2; strand 3 is a DNA tether) GCGGUGAAGAUAGAGGUGCGAACUUCAAGAGUAUGCCUUUGGAGAAAGAUGGAUUCUGUGAAAAAGGCUGAAAGGGGAGCGUCGCCGAAGCAAAUAAAACCCCAUCGGUAUUAUUUGCUGGCCGUGCAUUGAAUAAAUGUAAGGCUGUCAAGAAGCAUCGUUCAAGCGUUUUUUAUGCUUGGAAGAUAAGAA/CCGAUGCUUCUUGGAGGGCUAUCUUCACC; assay: smFRET histograms; conditions: Na+ in place of K+; ligand-bound FRET state not formed efficiently
[5] = tested on: wild-type lysC aptamer (three-strand smFRET construct LMS/1-5V2/DNA-bi) (RNA, riboswitch, internal amino modifier (N) for Cy5 between 25 and 26 of strand 2; strand 3 is a DNA tether) GCGGUGAAGAUAGAGGUGCGAACUUCAAGAGUAUGCCUUUGGAGAAAGAUGGAUUCUGUGAAAAAGGCUGAAAGGGGAGCGUCGCCGAAGCAAAUAAAACCCCAUCGGUAUUAUUUGCUGGCCGUGCAUUGAAUAAAUGUAAGGCUGUCAAGAAGCAUCGUUCAAGCGUUUUUUAUGCUUGGAAGAUAAGAA/CCGAUGCUUCUUGGAGGGCUAUCUUCACC; assay: smFRET histograms, global Hill fit of state occupancies; conditions: 50 mM Tris pH 7.8
[6] = tested on: BPX variant (G39C) (RNA, riboswitch, internal amino modifier (N) for Cy5 between 25 and 26 of strand 2; strand 3 is a DNA tether) GCGGUGAAGAUAGACGUGCGAACUUCAAGAGUAUGCCUUUGGAGAAAGAUGGAUUCUGUGAAAAAGGCUGAAAGGGGAGCGUCGCCGAAGCAAAUAAAACCCCAUCGGUAUUAUUUGCUGGCCGUGCAUUGAAUAAAUGUAAGGCUGUCAAGAAGCAUCGUUCAAGCGUUUUUUAUGCUUGGAAGAUAAGAA/CCGAUGCUUCUUGGAGGGCUAUCUUCACC; assay: smFRET histograms; conditions: ligand-bound FRET state not formed even at high Mg2+ or lysine

binding [1]: no
KD, app [2]: 11 ± 7 µM
binding [3]: no
binding [4]: weak
KD ([5]; 100 mM K+, 2 mM Mg2+, Figure 4 legend prints 4.5 ± 1 μM): 3 ± 1 µM
KD ([5]; no K+, 10 mM Mg2+, Hill coefficient 1.1 ± 0.2): 850 ± 35 µM
binding [6]: no
SMILES: NCCCC[C@H](N)C(=O)O
